Each structure is given as a SMILES string.

The conditions of data set [1]: Phase 1 and 2a trials; cited from earlier work.
For data set [2], the system named is metastatic melanoma human tumor sample. In words: Single-marker IHC of melanoma patient tumor samples (HALO). The format is in vivo. The procedure:
Single-marker IHC (CD8 and granzyme B) and multiplex IHC staining were analyzed using HALO™ spatial analysis tools, and the entire tumor area of each specimen was scored. (See Tunstall, “Quantifying Immune Cell Distribution in the Tumor Microenvironment Using HALO™ Spatial Analysis Tools,” Application Note, July […], (Indica Labs), accessed Nov. 1, 2017, on https://thepathologist.com/fileadmin/issues/App_Notes/0016-010-halo-app-note.pdf). See also Sherry et al., “Utilizing multiplex chromogenic IHC and digital image analysis to evaluate immune cell content and spatial distribution within NSCLC tumor tissue” Cancer Research (2017) 77(13) Supp: Abstract 2937. CD8 was measured using a mouse monoclonal antibody (DAKO catalog #M7103, lot #20029542). A Leica Bond RX Autostainer was used following standard protocols. For granzyme B, a mouse monoclonal antibody was used (DAKO #M7235). A Leica Bond RX Autostainer was used following standard protocols.
Single-marker IHC was also used to measure CD3, FoxP3, and Ki67. For CD3, a rabbit polyclonal antibody was used (DAKO catalog #A0452, lot #20020069). A Leica Bond RX Autostainer was used following standard protocols. For FoxP3, a mouse monoclonal antibody was used (Abcam catalog #ab20034, lot #GR251424-1). A Leica Bond RX Autostainer was used following standard protocols. […]

Data set [3] deals with solid tumors, e.g. advanced or metastatic melanoma. In words: Biomarker findings in tumors. The format is in vivo. An excerpt: Granzyme B is associated with cell death/apoptosis mediated by cytotoxic T lymphocytes (CTLs), natural killer (NK) cells, and cytotoxic T cells. Accordingly, in some embodiments, the biomarker is an observed increase in granzyme B expression in a tumor relative to a control. In some embodiments, the cancer is a solid tumor such as advanced or metastatic melanoma. […] Accordingly, in some embodiments, the biomarker is an observed increase in CD8^+ T cells and/or CD4^+ T cells in a tumor relative to a control. In other embodiments, the biomarker is an increase in the ratio of CD8^+ T cells to Treg cells. In some embodiments, the increase is observed by immunohistochemistry or expression levels of one or both of CD8A and CD8B. In some embodiments, an increase in CD8^+ T cells and/or CD4^+ T cells or CD8^+ T cells/Treg ratio in a tumor sample from a patient who has undergone treatment with […]-001 or X4-136 correlates with an increased likelihood that the patient will benefit from continued treatment with […]-001 alone or in combination with an immunotherapeutic agent, e.g., a checkpoint inhibitor such as a PD-1 antagonist. In some embodiments, the PD-1 antagonist is selected from nivolumab and pembrolizumab, or a biosimilar or variant of such PD-1 antagonists. In some embodiments, the checkpoint inhibitor is nivolumab. In some embodiments, the checkpoint inhibitor is a nivolumab biosimilar or variant. In some embodiments, the checkpoint inhibitor is pembrolizumab. In some embodiments, the checkpoint inhibitor is a pembrolizumab biosimilar or variant. In some embodiments, the tumor is a solid tumor such as advanced or metastatic melanoma. […] In some embodiments, the biomarker is IDO1. In some embodiments, the biomarker is CXCL10. In some embodiments, the biomarker is CXCL9. In some embodiments, the biomarker is HLA-DRA. In some embodiments, the biomarker is STAT1. In some embodiments, the biomarker is IFN-γ. In some embodiments, the biomarker is two or more of IDOL, CXCL10, CXCL9, HLA-DRA, STAT1 and IFN-γ. In some embodiments, the biomarker is three or more of IDO1, CXCL10, CXCL9, HLA-DRA, STAT1 and IFN-γ. In some embodiments, the biomarker is four or more of IDOL, CXCL10, CXCL9, HLA-DRA, STAT1 and IFN-γ. In some embodiments, the biomarker is five or more of IDOL, CXCL10, CXCL9, HLA-DRA, STAT1 and IFN-γ. In some embodiments, the biomarker is all of IDOL, CXCL10, CXCL9, HLA-DRA, STAT1 and IFN-γ. In some embodiments, the biomarker is an increase of all of IDO1, CXCL10, CXCL9, HLA-DRA, STAT1 and IFN-γ. In some embodiments, an increase in one, two, three, four, five, or all of IDOL, CXCL10, CXCL9, HLA-DRA, STAT1 and IFN-γ in a tumor sample from a patient who has undergone treatment with […]-001 correlates with an increased likelihood that the patient will benefit from continued treatment with […]-001 alone or in combination with an immunotherapeutic agent, e.g., a checkpoint inhibitor such as a PD-1 antagonist. In some embodiments, the PD-1 antagonist is selected from nivolumab and pembrolizumab, or a biosimilar or variant of such PD-1 antagonists. In some embodiments, the checkpoint inhibitor is nivolumab. In some embodiments, the checkpoint inhibitor is a nivolumab biosimilar or variant. In some embodiments, the checkpoint inhibitor is pembrolizumab. In some embodiments, the checkpoint inhibitor is a pembrolizumab biosimilar or variant. In some embodiments, the tumor is a solid tumor such as advanced or metastatic melanoma. In some embodiments, the biomarker or the use thereof is one of those described in Ayers et al., Journal of Clinical Investigation 2017, 127(8), 2930-2940 [29] (“Ayers et al. (2017)”) or WO 2016/094377, each of which is hereby incorporated by reference. […] Accordingly, in some embodiments, the biomarker is maintenance or decrease of Treg levels in a tumor relative to a control. In some embodiments, the biomarker is the level of FoxP3 expression, which serves as a means to determine the Treg level. […]

A short description of data set [4]: Solubility of X4P-001. It counts as physicochemical.
Where [5] appears, read: solid tumors, e.g. advanced or metastatic melanoma.

The term solubility denotes the concentration that dissolves in the medium under given conditions. Lower therefore signals a poorly soluble substance. Take `NCCCCN(Cc1nc2ccccc2[nH]1)[C@H]1CCCc2cccnc21` [X4P-001]: in data set [1], the “pharmacodynamic activity: circulating white blood cells (WBCs)” value was “dose- and concentration-related changes”; the “volume of distribution (VL)” value is “high”. Besides, in data set [2] (patient #5, post-dosing vs pre-dosing), the CD8 expression entry was “visibly increased”. Further, the “CD8+ T cells density in tumor microenvironment” value in data set [2] (patient #5, post-dosing, pre-dosing 1045) is 1370 per square millimeter. In addition, in data set [3] (in vivo), the “CTL signature gene expression in tumor samples or the tumor microenvironment” value is “increase”; the “IFN-γ gene signature (panel of IFN-γ related genes)” value was “increase”; the “PD-L1 expression in tumor samples and the tumor microenvironment” value is on record as “increase”. Moreover, in data set [3] (setting [5]), the “granzyme B (GZMB) expression in cancers” value is reported as “increases”, the “levels of Treg cells” value is given as “without significantly increasing”, the “levels of macrophages in the tumor” value is given as “without significantly modulating” and the “observed numbers of CD8+ T cells and/or CD4+ T cells in cancers” value is listed as “increases”. For the same compound, in data set [3] (tumor samples and the tumor microenvironment), the “levels of the VISTA panel of biomarkers” value was “modulate”. The solubility in data set [4] (aqueous buffer, pH range 3.0 to 8.0 (freely soluble)) was above 100 mg/mL. The solubility in water entry in data set [4] (water) is “only slightly soluble”.

Values taken from US20210349099A1, “CANCER BIOMARKERS AND METHODS OF USE THEREOF” (X4 Pharmaceuticals, Inc., priority 2017, published 2021).
